Experimental data published in patent US20020156068A1, “Anti-psychosis combination” (priority 2001, published 2002).
Where a name gives a salt, the structure may show the parent alone.

Test system: MK-801-induced hyperactivity
Test: Antagonism of MK801-induced hyperlocomotion (locomotor activity cages)
Type: in vivo, rat
Conditions: 180 min; for MK-801-induced hyperactivity as measured by a decrease in ambulation: male Sprague-Dawley rats, AR116081 10 or 20 mg/kg oral, each alone; for MK-801-induced hyperactivity as measured by a decrease in ambulation / effect of MK801 on fine movements, a measure of stereotypies / effect on rear measures (rearing activity): Haloperidol 0.05 mg/kg s.c., MK-801 0.3 mg/kg s.c.; for effect of MK801 on fine movements, a measure of stereotypies / effect on rear measures (rearing activity): AR116081 20 mg/kg oral, alone or combined
Experimental: Antagonism of MK801-Induced Hyperlocomotion: a Model of Potential Antipsychotic (“antipositive”) Activity
Because part of the symptomatology of schizophrenia may be related to altered glutamate transmission at the NMDA receptor, the reversal of MK-801-induced hyperlocomotor activity in rodents has been used routinely as an animal model for detecting potential antipsychotic activity (Hoffinan, D. C., J. Neural. Transm. 89:1-10, 1992).
Motor function was assessed using automated locomotor activity cages (Hamilton-Kinder, San Diego) comprised of standard rodent cages surrounded by photocell beams, allowing for automated recording of motor activity. The animals were under no motivational constraints and were free to move around the cages. In this test, male Sprague-Dawley rats (200-325 g body weight) were food deprived overnight prior to testing. On the testing day, they were administered AR116081 orally at a dose of 10 or 20 mg/kg base (substance # 127190 suspended in 1% Tween 80 and 99% distilled water solution, volume injection 10 cc/kg) immediately followed by subcutaneous administration of Haloperidol at a dose of 0.05 mg/kg base (RBI lot # TOW-1990 dissolved in distilled water and pH at 5-6, volume injection 1 cc/kg). The treated rats were placed in the locomotor activity cages 30 min after co-administration of compounds for a 30 min habituation period to the cages and recording of basal locomotor activity. Animals then received (via subcutaneous administration) (+)-MK801 hydrogen maleate at a dose of 0.3 mg/kg salt (RBI/Sigma Lot #108H4705 dissolved in saline, volume injection 1 cc/kg). The rats were immediately placed back into the locomotor activity cages, and activity was measured for 180 min.

| Compound | MK-801-induced hyperactivity as measured by a decrease in ambulation | effect of MK801 on fine movements, a measure of stereotypies (rats) | effect on rear measures (rearing activity) (rats) | motor parameters recorded: ambulation, fine movement and rearing activity (rats, MK-801 0.3 mg/kg s.c. alone) |
| --- | --- | --- | --- | --- |
| O=C(CCCN1CCC(O)(c2ccc(Cl)cc2)CC1)c1ccc(F)cc1 [Haloperidol] | attenuated | attenuated but did not significantly reverse | No effects | – |
| C[C@]12N[C@H](Cc3ccccc31)c1ccccc12 [MK-801, (+)-MK801 hydrogen maleate] | – | – | – | significant increase |
| Cn1ncc(Br)c1-c1cccc(NC(=O)Nc2ccc(Cl)cc2)c1 [AR116081, N-[3-(4-bromo-2-methylpyrazol-3-yl)phenyl][(4-chlorophenyl)amino]carboxamide] | attenuated | attenuated but did not significantly reverse | No effects | – |
